Data on five molecules can be found in patent US12643876B2, “Deuterated hpki kinase inhibitor, and preparation method therefor and use thereof” (ZHUHAI YUFAN BIOTECHNOLOGIES CO., LTD, priority 2020, dated 2026).

Data set [1] in a line: Free base crystalline form B standing at room temperature (XRPD). The settings on record: closed space, 5 days. The class given is physicochemical. The source says:
The XRPD patterns of free base crystalline form B of compound A2 before and after standing at room temperature are shown in FIG. 9.

The nature of data set [2]: Free base crystalline form B nitrogen purging (XRPD). It counts as physicochemical. The conditions noted are these: nitrogen purging at 30° C. for 20 minutes.
Data set [3] in a line: Solid state stability of free base crystalline form A (HPLC). The conditions noted are these: 60° C./1 day, closed space. It counts as physicochemical. As for the experimental part:
Solid State Stability of Free Base Crystalline Form A
The XRPD patterns of an initial sample of the free base crystalline form A described above and the free base crystalline form A after 1 day of standing in a closed space at 60° C. are shown in FIG. 5, and the HPLC results are shown in Table 5.

Data set [4] in a line: microsome metabolite identification / stability, beagle liver microsomes. It counts as in vitro ADME. The settings on record: 37° C. The method, then: (§1) The operation steps for microsome metabolite identification were as follows:
(§2) For the sample with T=60 min, 4 μL of the test sample working solution (1.0 mM), 316 μL of the liver microsome working solution (1.27 mg/mL) and 80 μL of the reduced coenzyme working solution were added sequentially to start the reaction; for the sample with T=0 min, 316 μL of the liver microsome working solution (1.27 mg/mL) was added, and 80 μL of the reduced coenzyme working solution was added to start the reaction, with no test sample incubation; after incubation at 37° C. for 60 min, 1200 μL of stop buffer was added to stop the enzymatic reaction; and for the sample with T=0 min, 4 μL of the test sample working solution (1.0 mM) was added. The sample plate was placed on a vortexer and vortexed at 600 rpm for 5 min. The mixture was centrifuged at 4000 rpm for 10 min, and the supernatant was removed, mixed and purged with nitrogen to dryness at room temperature. The resulting solution was re-dissolved with 300 μL of 10% acetonitrile (0.1% FA), the […] centrifuged at 4000 rpm for 15 min, and the supernatant was transferred to a detection plate for mass spectrometry. Mass spectrometry was performed using an LC/Q-Exactive plus. 7-ethoxycoumarin (10 μM) was selected as a positive control compound, using the procedure same as that of the compounds.
For orientation: Microsomes from liver hold many membrane-bound enzymes, among them those of drug oxidation.

Data set [5] in a line: microsome metabolite identification / stability, rat liver microsomes. It counts as in vitro ADME. The settings on record: 37° C. As for the experimental part:
as §1, §2

Data set [6] in a line: microsome metabolite identification / stability, human liver microsomes. The class given is in vitro ADME. The conditions noted are these: 37° C. The method, then:
as §1, §2

The nature of data set [7]: microsome metabolite identification / stability, cynomolgus monkey liver microsomes. The class given is in vitro ADME. The conditions noted are these: 37° C. The method, then: as §1, §2
A short description of data set [8]: microsome metabolite identification / stability, mouse liver microsomes. It counts as in vitro ADME. The settings on record: 37° C. As for the experimental part:
as §1, §2

In the case of `[2H]C([2H])([2H])N1CCC(n2cc(-c3cnc(N)c(OCc4cccc(C#CC(C)(C)O)c4)c3)cn2)CC1` [4-(3-(((2-amino-S-(1-(1-trideuteromethylpiperidin-4-yl)-1H-pyrazol-4-yl)pyridin-3-yl)oxy)methyl)phenyl)-2-methylbut-3-yn-2-ol], the “crystalline form stability (XRPD)” value in data set [1] was “tendency of converting into the free base crystalline form A”; in data set [2] it was “conversion in crystalline forms”. In addition, the “HPLC Area (%) of peak 4 (RRT 1.06)” value in data set [3] (initial sample 0.10) worked out at 0.09%. Further, the “HPLC Area (%) of peak 3 (RRT 1.05)” value in data set [3] (initial sample 0.22) amounted to 0.17%. Also, the “HPLC Area (%) of peak 1 (RRT 0.95)” value in data set [3] (initial sample 0.42) is listed as 0.41%. In addition, the “HPLC Area (%) of peak 2 (RRT 1.00, main peak)” value in data set [3] (initial sample 99.26) worked out at 99.33%.

As for `CN1CCC(n2cc(-c3cnc(N)c(OCc4cccc(C#CC(C)(C)O)c4)c3)cn2)CC1` [Compound A1, reference compound], the “remaining percentage of the parent nucleus after 60 min” value (“remaining percentage” below) in data set [4] is 0.17%; in data set [5] it was 2.44%; in data set [6], 43.84%; in data set [7], 0.36%; in data set [8] it was 1.13%.

On to `[2H]C([2H])([2H])N1CCC(n2cc(-c3cnc(N)c(OCc4cccc(C#CC(C)(C)O)c4)c3)cn2)CC1` [Compound A2, 4-(3-(((2-amino-S-(1-(1-trideuteromethylpiperidin-4-yl)-1H-pyrazol-4-yl)pyridin-3-yl)oxy)methyl)phenyl)-2-methylbut-3-yn-2-ol], for which the “remaining percentage” value in data set [4] was 7.0%; in data set [5], 52.1%; in data set [6], 83.9%; in data set [7] it was 29.6%; in data set [8] it was 55.0%.

`CN1CCC(c2ncc(-c3cnc(N)c(OCc4cccc(C#CC(C)(C)O)c4)c3)s2)CC1` [Compound B1, reference compound]: the “remaining percentage” value in data set [4] was 0.12%; in data set [5], 11.21%; in data set [6], 51.82%; in data set [7] it was 9.11%; in data set [8] it was 1.24%.

Regarding `[2H]C([2H])([2H])N1CCC(c2ncc(-c3cnc(N)c(OCc4cccc(C#CC(C)(C)O)c4)c3)s2)CC1` [Compound B2], the “remaining percentage” value was 8.9% in data set [4]; 43.9% in data set [5]; 70.4% in data set [6]; 23.4% in data set [7]; 42.8% in data set [8].
